Columns and labels:
[1] = system: panel of 131 human kinases; assay: Kinase selectivity screen (whole panel); assay type: biochemical; conditions: 10 μM
Experimental: The substantially less demanding synthesis of ICL-CCIC-0019 compared with MN58B bears additional advantages. […] This consequently diminished intracellular PCho concentration, and importantly, the incorporation of [^3H]-choline into lipids (Figure 1D). […] To assess kinase specificity, ICL-CCIC-0019 was tested against a panel of 131 human kinases (Figure 1E and Supplementary Table S1). […] Inhibition greater than 20% was attained for insulin-like growth factor 1 (IGF-1R, 35 ± 7% inhibition), mitogen-activated protein kinase-activated protein kinase 3 (MAPKAP-K3, 33 ± 6%), extracellular signal regulated kinase 8 (ERK8, 31 ± 4%), ribosomal S6 kinase 1 (RSK1, 22 ± 6%), and v-erb-a erythroblastic leukemia viral oncogene homolog 4 (HER4, 21 ± 7%).

SIK3 = SIK3 (Homo sapiens, UniProt Q9Y2K2); assay: Kinase selectivity screen; assay type: biochemical; conditions: SIK3, 10 μM
Sequence of SIK3 (Q9Y2K2 whole entry): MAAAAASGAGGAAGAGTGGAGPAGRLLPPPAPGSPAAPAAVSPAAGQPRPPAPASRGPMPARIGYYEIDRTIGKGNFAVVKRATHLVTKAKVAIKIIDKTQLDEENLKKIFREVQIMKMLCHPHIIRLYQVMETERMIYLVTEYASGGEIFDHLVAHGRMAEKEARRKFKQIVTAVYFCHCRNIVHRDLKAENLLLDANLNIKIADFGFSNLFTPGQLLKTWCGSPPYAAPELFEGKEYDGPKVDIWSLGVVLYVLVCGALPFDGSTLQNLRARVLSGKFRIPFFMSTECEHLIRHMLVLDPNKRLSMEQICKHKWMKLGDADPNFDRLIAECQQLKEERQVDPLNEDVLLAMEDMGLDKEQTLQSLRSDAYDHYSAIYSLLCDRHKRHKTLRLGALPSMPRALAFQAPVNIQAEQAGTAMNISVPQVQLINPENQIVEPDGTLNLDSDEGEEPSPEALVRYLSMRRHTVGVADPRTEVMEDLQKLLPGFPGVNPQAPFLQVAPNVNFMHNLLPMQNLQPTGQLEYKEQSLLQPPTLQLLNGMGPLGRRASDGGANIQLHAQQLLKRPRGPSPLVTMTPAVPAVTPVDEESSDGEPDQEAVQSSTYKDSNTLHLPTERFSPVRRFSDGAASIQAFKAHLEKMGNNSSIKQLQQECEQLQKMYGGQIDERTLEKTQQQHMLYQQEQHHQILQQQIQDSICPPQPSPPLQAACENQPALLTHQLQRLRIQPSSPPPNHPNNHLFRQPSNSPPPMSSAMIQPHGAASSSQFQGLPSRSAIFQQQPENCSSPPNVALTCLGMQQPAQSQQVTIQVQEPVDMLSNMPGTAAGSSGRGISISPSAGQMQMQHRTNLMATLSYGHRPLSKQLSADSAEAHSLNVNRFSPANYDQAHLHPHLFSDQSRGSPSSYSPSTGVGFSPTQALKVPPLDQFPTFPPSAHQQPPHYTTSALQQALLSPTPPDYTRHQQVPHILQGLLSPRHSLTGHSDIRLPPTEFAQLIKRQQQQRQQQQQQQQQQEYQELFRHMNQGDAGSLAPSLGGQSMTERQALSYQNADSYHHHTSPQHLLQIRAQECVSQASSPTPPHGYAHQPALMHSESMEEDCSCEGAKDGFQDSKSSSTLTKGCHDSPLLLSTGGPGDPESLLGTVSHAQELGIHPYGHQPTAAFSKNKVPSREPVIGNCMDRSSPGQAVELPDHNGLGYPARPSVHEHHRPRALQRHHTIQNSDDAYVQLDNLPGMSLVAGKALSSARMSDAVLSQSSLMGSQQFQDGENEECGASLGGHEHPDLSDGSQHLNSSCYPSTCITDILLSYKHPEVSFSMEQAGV
In short: (§1)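 ICL-CCIC-0019 was screened against a panel of 131 human kinases to assess kinase specificity. Activity was expressed as percent inhibition of each kinase.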

TTBK1 = TTBK1 (Homo sapiens, UniProt Q5TCY1); assay: Kinase selectivity screen; assay type: biochemical; conditions: TTBK1, 10 μM
In short: as §1

p38g MAPK = p38g MAPK (Homo sapiens, UniProt P53778); assay: Kinase selectivity screen; assay type: biochemical
Sequence of p38g MAPK (P53778 whole entry): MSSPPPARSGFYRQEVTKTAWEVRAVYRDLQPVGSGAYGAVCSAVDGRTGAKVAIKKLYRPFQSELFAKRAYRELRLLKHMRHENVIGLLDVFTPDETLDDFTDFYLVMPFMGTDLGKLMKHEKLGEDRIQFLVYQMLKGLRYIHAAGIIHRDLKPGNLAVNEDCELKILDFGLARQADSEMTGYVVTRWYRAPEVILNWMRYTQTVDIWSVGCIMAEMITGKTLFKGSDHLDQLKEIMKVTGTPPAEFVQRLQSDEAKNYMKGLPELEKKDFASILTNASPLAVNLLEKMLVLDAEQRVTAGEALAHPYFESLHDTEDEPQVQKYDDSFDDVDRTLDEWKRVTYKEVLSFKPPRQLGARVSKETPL
In short: as §1

MARK4 = MARK4 (Homo sapiens, UniProt Q96L34); assay: Kinase selectivity screen; assay type: biochemical; conditions: MARK4, 10 μM
MSK1 = MSK1 (Homo sapiens, UniProt O75582); assay: Kinase selectivity screen; assay type: biochemical; conditions: MSK1, 10 μM
In short: as §1

SIK2 = SIK2 (Homo sapiens, UniProt Q9H0K1); assay: Kinase selectivity screen; assay type: biochemical; conditions: SIK2, 10 μM
In short: as §1

TTK = TTK (Homo sapiens, UniProt P33981); assay: Kinase selectivity screen; assay type: biochemical
In short: as §1

SmMLCK = SmMLCK (Homo sapiens, UniProt Q15746); assay: Kinase selectivity screen; assay type: biochemical
In short: as §1

PKCz = PKCz (Homo sapiens, UniProt Q05513); assay: Kinase selectivity screen; assay type: biochemical
In short: as §1

DDR2 = DDR2 (Homo sapiens, UniProt Q16832); assay: Kinase selectivity screen; assay type: biochemical; conditions: DDR2, 10 μM
Sequence of DDR2 (Q16832 22-855): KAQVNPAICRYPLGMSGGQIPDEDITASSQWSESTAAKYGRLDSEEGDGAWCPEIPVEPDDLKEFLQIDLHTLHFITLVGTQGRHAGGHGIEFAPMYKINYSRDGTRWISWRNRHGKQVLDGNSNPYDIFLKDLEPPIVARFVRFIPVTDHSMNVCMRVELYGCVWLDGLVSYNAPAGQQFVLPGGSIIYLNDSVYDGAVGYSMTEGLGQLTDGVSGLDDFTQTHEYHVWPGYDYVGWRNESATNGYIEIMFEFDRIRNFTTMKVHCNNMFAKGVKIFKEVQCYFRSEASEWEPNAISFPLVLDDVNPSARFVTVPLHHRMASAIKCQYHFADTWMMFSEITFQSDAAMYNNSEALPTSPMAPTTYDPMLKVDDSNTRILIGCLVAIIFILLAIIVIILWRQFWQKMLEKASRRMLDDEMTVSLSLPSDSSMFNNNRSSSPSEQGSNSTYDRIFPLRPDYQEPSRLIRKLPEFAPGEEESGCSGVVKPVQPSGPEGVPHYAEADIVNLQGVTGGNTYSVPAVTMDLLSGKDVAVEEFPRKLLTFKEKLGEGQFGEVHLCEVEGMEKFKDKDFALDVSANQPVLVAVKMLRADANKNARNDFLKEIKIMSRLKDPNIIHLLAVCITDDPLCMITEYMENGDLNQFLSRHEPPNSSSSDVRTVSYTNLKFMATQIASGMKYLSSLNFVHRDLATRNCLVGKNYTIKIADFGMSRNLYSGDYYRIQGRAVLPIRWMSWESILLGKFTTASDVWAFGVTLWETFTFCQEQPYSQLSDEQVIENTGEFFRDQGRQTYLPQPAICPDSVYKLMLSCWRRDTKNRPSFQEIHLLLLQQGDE
In short: as §1

NUAK1 = NUAK1 (Homo sapiens, UniProt O60285); assay: Kinase selectivity screen; assay type: biochemical; conditions: NUAK1, 10 μM
In short: as §1

S6K1 = S6K1 (Homo sapiens, UniProt P23443); assay: Kinase selectivity screen; assay type: biochemical; conditions: S6K1, 10 μM
Sequence of S6K1 (P23443 whole entry): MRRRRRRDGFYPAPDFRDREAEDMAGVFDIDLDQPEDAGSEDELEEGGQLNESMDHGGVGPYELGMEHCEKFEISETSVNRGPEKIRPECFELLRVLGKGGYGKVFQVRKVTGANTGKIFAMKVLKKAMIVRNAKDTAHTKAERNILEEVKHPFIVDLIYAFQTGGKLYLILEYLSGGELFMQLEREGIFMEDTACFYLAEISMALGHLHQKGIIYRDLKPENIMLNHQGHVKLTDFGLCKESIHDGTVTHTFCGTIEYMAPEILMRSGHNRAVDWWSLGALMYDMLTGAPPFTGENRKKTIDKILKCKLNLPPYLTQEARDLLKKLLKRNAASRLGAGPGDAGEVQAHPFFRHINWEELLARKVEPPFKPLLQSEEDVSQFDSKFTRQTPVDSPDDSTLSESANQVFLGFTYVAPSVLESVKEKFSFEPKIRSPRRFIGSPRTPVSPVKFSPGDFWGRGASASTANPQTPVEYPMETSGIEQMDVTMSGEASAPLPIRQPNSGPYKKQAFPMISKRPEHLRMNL
In short: as §1

JAK2 = JAK2 (Homo sapiens, UniProt O60674); assay: Kinase selectivity screen; assay type: biochemical; conditions: JAK2, 10 μM
CHK1 = CHK1 (Homo sapiens, UniProt O14757); assay: Kinase selectivity screen; assay type: biochemical; conditions: CHK1, 10 μM
Sequence of CHK1 (O14757 whole entry): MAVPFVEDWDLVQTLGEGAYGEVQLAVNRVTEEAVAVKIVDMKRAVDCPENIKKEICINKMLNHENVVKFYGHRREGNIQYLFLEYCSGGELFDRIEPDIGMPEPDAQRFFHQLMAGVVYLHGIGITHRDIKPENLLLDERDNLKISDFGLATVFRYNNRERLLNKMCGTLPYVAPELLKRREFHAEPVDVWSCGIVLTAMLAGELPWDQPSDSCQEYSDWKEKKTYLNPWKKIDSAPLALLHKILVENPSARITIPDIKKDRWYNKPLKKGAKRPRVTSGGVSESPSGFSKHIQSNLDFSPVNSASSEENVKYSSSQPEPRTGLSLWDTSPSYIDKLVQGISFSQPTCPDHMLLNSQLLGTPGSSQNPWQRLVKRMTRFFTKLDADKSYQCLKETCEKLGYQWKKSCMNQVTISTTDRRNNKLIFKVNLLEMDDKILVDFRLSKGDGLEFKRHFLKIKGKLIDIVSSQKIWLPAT

MELK = MELK (Homo sapiens, UniProt Q14680); assay: Kinase selectivity screen; assay type: biochemical
Sequence of MELK (Q14680 whole entry): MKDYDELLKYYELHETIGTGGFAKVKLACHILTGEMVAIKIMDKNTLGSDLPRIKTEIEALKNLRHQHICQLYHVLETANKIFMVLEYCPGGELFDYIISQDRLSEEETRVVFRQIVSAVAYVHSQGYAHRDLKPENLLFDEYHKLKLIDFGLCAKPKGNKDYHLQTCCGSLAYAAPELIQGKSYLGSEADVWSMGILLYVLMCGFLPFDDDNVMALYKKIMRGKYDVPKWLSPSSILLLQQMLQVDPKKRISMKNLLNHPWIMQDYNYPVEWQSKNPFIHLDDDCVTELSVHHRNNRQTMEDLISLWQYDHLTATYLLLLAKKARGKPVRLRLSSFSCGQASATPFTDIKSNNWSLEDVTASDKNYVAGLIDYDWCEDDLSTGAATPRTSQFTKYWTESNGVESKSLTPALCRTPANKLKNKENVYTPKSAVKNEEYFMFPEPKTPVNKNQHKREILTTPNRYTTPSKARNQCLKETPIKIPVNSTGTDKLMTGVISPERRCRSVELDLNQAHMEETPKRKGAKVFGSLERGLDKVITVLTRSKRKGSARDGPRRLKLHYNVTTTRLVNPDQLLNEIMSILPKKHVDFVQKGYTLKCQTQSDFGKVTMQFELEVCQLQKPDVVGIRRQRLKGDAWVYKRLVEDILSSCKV

MNK2 = MNK2 (Homo sapiens, UniProt Q9HBH9); assay: Kinase selectivity screen; assay type: biochemical; conditions: MNK2, 10 μM
CHKA = molecular target: T1, CHKA (Homo sapiens, UniProt P35790); assay: CHKA dimer integrity by BN-PAGE; assay type: cell-based; conditions: HCT116 cells, 24 hours
T1 construct: endogenous in cells; host or cells: HCT116
T1 sequence (P35790 whole entry): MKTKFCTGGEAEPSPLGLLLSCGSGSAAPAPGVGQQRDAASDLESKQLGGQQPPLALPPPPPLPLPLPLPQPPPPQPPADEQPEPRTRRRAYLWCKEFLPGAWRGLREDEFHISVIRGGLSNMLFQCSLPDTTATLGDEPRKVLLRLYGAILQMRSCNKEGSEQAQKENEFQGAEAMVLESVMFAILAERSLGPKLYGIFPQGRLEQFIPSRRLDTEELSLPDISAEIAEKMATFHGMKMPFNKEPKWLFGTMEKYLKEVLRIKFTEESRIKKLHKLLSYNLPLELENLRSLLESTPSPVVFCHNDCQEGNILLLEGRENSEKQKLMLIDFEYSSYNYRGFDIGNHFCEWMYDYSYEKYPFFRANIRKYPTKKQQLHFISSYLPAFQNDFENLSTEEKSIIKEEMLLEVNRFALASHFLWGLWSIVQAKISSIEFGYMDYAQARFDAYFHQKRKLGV
Experimental: Native gels were run using blue native polyacrylamide gel electrophoresis (BN-PAGE) method. Cell homogenates were obtained by addition of passive lysis buffer (Promega) containing protease and phosphatase inhibitors to cell pellets and incubation for 30 minutes on a tube rotor at 4°C. Samples were cleared by centrifugation for 10 minutes at 12 000 × g at 4°C. Samples were prepared by mixing 30 μg protein with an equal volume of 2 × sample buffer (62.5 mM Tris-HCl, pH 6.8, 25% (v/v) glycerol, 0.01% (w/v) bromophenol blue, 0.02% (w/v) Coomassi Blue G250; all from Sigma-Aldrich). As control, D49N CHKA2 [58] was either applied under native conditions (100 ng diluted to 10 μL in 100 mM Tris buffer pH 7.4 added to 10 μL 2 × sample buffer) or denatured using SDS [100 ng diluted in RIPA buffer, 1 × NuPAGE LDS sample buffer and 1 × sample reducing agent (both Life Technologies)] and incubated at 70°C for 10 minutes. Samples were resolved on 4–15% mini-protean TGX gels using 1 × native running buffer (25 mM Tris, 192 mM glycine, pH 8.3). The cathode buffer was additionally supplemented with 750 μL Coomassi Blue G250 [final concentration ca. 0.04% (w/v)]. Membranes were transferred and probed as described above.

HCT116 xenografts = assay: Kinetic modeling of [18F]-D4-FCH PET data; assay type: in vivo, BALB/c nude mice
From the text: We employed kinetic modeling to further characterize ICL-CCIC-0019-mediated choline kinase inhibition in vivo. Whereas normalized tissue uptake values reflect tracer concentration in a 3-dimensional region of interest, kinetic modeling accounts for tissue uptake relative to plasma. A two-tissue irreversible compartmental model, as previously reported, was employed with the hypothesis that k3 would represent the rate by which the tracer is phosphorylated by choline kinase, (Supplementary Figure S2C). Although this enzymatic reaction is in principle reversible, it was assumed that the high dependency of cancer cells to incorporate choline made it unlikely that catalytic hydrolysis of PCho prevails. Best fits and more physiological parameters were obtained with a 3k (excluding k4) instead of a 4k model. […] In all examined tissues, the blood volume Vb decreased initially after treatment (Supplementary Figure S2D). These perfusion deficits were more pronounced and persistent in tumor compared to liver and kidney. To rule out that these kinetic changes are solely due to choline transport inhibition, we analyzed the choline metabolites of [^18F]-D4-FCH in HCT116 cells treated with ICL-CCIC-0019. As expected for CHKA inhibition, ICL-CCIC-0019 decreased the [^18F]-D4-PCho peak, changing the relative ratio of [^18F]-D4-Cho:[^18F]-D4-PCho from 72:28 in the vehicle control to 87:13 in the treatment group (Supplementary Figure S2E–S2F).
Kinetic analysis of PET data was performed applying a standard two-tissue irreversible compartmental model described in detail elsewhere.

With `CN(C)c1cc[n+](CCCCCCCCCCCC[n+]2ccc(N(C)C)cc2)cc1` [ICL-CCIC-0019] the “inhibition in all 131 kinases” value [1] was no more than 35%, the “number of kinases inhibited more than 20%” value ([1]; 131 kinases) was 5 and the remaining activity at 10 µM (SIK3) was 102%. The remaining activity at 10 µM (TTBK1) was 97%, the remaining activity at 10 µM (p38g MAPK) was 99% and the remaining activity at 10 µM (MARK4) was 95%. The remaining activity at 10 µM (MSK1) was 96%, the remaining activity at 10 µM (SIK2) was 109% and the remaining activity at 10 µM (TTK) was 101%. For the same compound, the remaining activity at 10 µM (SmMLCK) was 104%, the remaining activity at 10 µM (PKCz) was 106% and the remaining activity at 10 µM (DDR2) was 85%. It also gave a remaining activity at 10 µM (NUAK1) of 103%, a remaining activity at 10 µM (S6K1) of 88% and a remaining activity at 10 µM (JAK2) of 90%. The remaining activity at 10 µM (CHK1) was 97%, the remaining activity at 10 µM (MELK) was 106% and the remaining activity at 10 µM (MNK2) was 96%. The CHKA enzyme dimerization (CHKA) was “not compromised”, the “decrease of tumor K1 compared to control” value (HCT116 xenografts; 24 hours) was 73% and the “decrease of tumor K1 compared to control” value (HCT116 xenografts; 48 hours) was 75%. The “macro parameter Ki (net irreversible uptake rate) in tumor” value (HCT116 xenografts; 48 hours) was “significantly decreased”.
